Source: patent US4016158A, “Cephalosporin derivatives” (Roussel-UCLAF, priority 1971, dated 1977)
Converted amounts (≈) assume the structure as drawn. Like-named read-outs stand apart in the source and are kept apart here.

Legend:
[1] = system: Staphylococcus aureus 1098; assay: MIC (Table II); assay type: cell-based; conditions: read-out: minimum inhibition concentration
Description: (§1) The antibiotic activity was determined by the diffusion method in a gelose medium at a pH of 7. The following Table expresses the minimum concentration of inhibition in mcg/ml (CMl) for the products against different microbial strains.
(§2) Using the same procedure as in Table I, the minimum inhibition concentration in mcg/ml was determined against different microbial strains with L(-) cis 7-[D(-)-α-aminophenylacetamido]-3-isopropyl-3-cepheme-4-carboxylic acid (product A) of Example 9.

[2] = system: Staphylococcus aureus 4546; assay: MIC (Table II); assay type: cell-based; conditions: Staphylococcus aureus, 4546, read-out: minimum inhibition concentration
Description: as §1, §2

Shigella flexneri = assay: MIC (Table II); assay type: cell-based; conditions: read-out: minimum inhibition concentration
Description: as §1, §2

[3] = system: Staphylococcus aureus Frottis nasal; assay: MIC (Table II); assay type: cell-based; conditions: read-out: minimum inhibition concentration
Description: as §1, §2

[4] = system: Staphylococcus aureus 9373; assay: MIC (Table II); assay type: cell-based; conditions: Staphylococcus aureus, 9373, read-out: minimum inhibition concentration
Description: as §1, §2

Proteus mirabilis 8029 = assay: MIC (Table II); assay type: cell-based; conditions: read-out: minimum inhibition concentration
Description: as §1, §2

[5] = system: Staphylococcus aureus 9482; assay: MIC (Table II); assay type: cell-based; conditions: Staphylococcus aureus, 9482, read-out: minimum inhibition concentration
Description: as §1, §2

Escherichia coli 9957 = assay: MIC (Table II); assay type: cell-based; conditions: read-out: minimum inhibition concentration
Description: as §1, §2

Escherichia coli 9927 = assay: MIC (Table II); assay type: cell-based; conditions: read-out: minimum inhibition concentration
Description: as §1, §2

Escherichia coli 1718 = assay: MIC (Table II); assay type: cell-based; conditions: read-out: minimum inhibition concentration
Description: as §1, §2

[6] = system: Diplococcus pneumoniae 735; assay: MIC (Table II); assay type: cell-based; conditions: Streptococcus pneumoniae, read-out: minimum inhibition concentration
Description: as §1, §2

[7] = system: Staphylococcus aureus 8514; assay: MIC (Table II); assay type: cell-based; conditions: read-out: minimum inhibition concentration
Description: as §1, §2

Bac. Subt. = assay: MIC, diffusion method in gelose medium at pH 7 (Table I); assay type: cell-based; conditions: Bac. Subt., pH 7; read-out: minimum concentration of inhibition
Description: as §1

Escher. Coli UC 1020 = assay: as above; assay type: cell-based; conditions: Escherichia coli, UC1020; Escher. Coli UC 1020, pH 7; read-out: minimum concentration of inhibition
Description: as §1

Staph. U.C. 1128 P(-) = assay: as above; assay type: cell-based; conditions: Staph. UC 1128, penicillin resistant, read-out: minimum concentration of inhibition
Description: as §1

Pseudomonas = assay: as above; assay type: cell-based; conditions: read-out: minimum concentration of inhibition
Description: as §1

[8] = system: Strept. hemoly. Todd Hewitt; assay: as above; assay type: cell-based; conditions: Strept. hemoly. Todd Hewitt, pH 7; read-out: minimum concentration of inhibition
Description: as §1

Escher. Coli UC 1261 = assay: as above; assay type: cell-based; conditions: Escherichia coli, UC1261; Escher. Coli UC 1261, pH 7; read-out: minimum concentration of inhibition
Description: as §1

[9] = system: Staph. aureus oxford U.C. 1061 P(+); assay: as above; assay type: cell-based; conditions: Staphylococcus aureus, UC1061; Staph. aureus oxford UC 1061, penicillin sensitive, pH 7; read-out: minimum concentration of inhibition
Description: as §1

Strept. Fecalis 5432 = assay: as above; assay type: cell-based; conditions: Strept. Fecalis 5432, pH 7; read-out: minimum concentration of inhibition
Description: as §1

oral toxicity in rats = conditions: rat, in vivo
Description: The oral toxicity of product A was determined on homogenous groups of 10 male rats weighing 100 to 110 g by administering orally a 0.25% by weight dispersion of product A in an aqueous suspension of carboxymethyl cellulose with an esophagus probe. […] The rats in the test were held in a place in which the air was filtered and sterilized by ultraviolet light and the temperature was held at 22° ± 1° C with a controlled humidity.

Escherichia coli 4965 = assay: bactericidal activity (germs still alive); assay type: cell-based; design: key: +++: all the germs are still alive; +: it remains some colonies; -: it does not remain any germ
Description: (§3) The bactericidal activity of product A was ascertained by determining the number of germs still alive after treatment with increasing doses of antibiotic on a liquid media. From the cultures in tubes having 72 hours (previously described method), were placed on agar in Petri dishes a constant sample of the last tube having grown and of the following tubes where no more growth in transillumination is observed. After 48 hours of culture in the Petri dishes, the number of colonies was ascertained.

[10] = system: Streptococcus hemolyticus 920; assay: bactericidal activity (germs still alive); assay type: cell-based; design: key: +++: all the germs are still alive; +: it remains some colonies; -: it does not remain any germ
Description: as §3

Escherichia coli 070 = assay: bactericidal activity (germs still alive); assay type: cell-based; design: key: +++: all the germs are still alive; +: it remains some colonies; -: it does not remain any germ
Description: as §3

[11] = system: Diplococcus pneumoniae 735; assay: bactericidal activity (germs still alive); assay type: cell-based; design: key: +++: all the germs are still alive; +: it remains some colonies; -: it does not remain any germ
Description: as §3

[12] = system: Streptococcus hemolyticus 905; assay: bactericidal activity (germs still alive); assay type: cell-based; design: key: +++: all the germs are still alive; +: it remains some colonies; -: it does not remain any germ
Description: as §3

CC(C)C1=C(C(=O)O)N2C(=O)[C@@H](NC(=O)[C@H](N)c3ccccc3)[C@H]2SC1 [Example 9, L (+) cis 7-[D (-)-α-aminophenylacetamido]-3-isopropyl-3-cepheme-4-carboxylic acid]
MIC ([1]; 24h): 0.4 µg/mL (≈ 1.07 µM) | MIC ([1]; 48h): 1 µg/mL (≈ 2.66 µM) | MIC ([1]; 72h): 3 µg/mL (≈ 7.99 µM) | MIC ([2]; 24h): 0.6 µg/mL (≈ 1.6 µM) | MIC ([2]; 48h): 2 µg/mL (≈ 5.33 µM) | MIC ([2]; 72h): 3 µg/mL (≈ 7.99 µM) | MIC (Shigella flexneri; 24h): 20 µg/mL (≈ 53.3 µM) | MIC (Shigella flexneri; 48h): 40 µg/mL (≈ 107 µM) | MIC (Shigella flexneri; 72h): 40 µg/mL (≈ 107 µM) | MIC ([3]; 24h): 2 µg/mL (≈ 5.33 µM) | MIC ([3]; 48h): 3 µg/mL (≈ 7.99 µM) | MIC ([3]; 72h): 10 µg/mL (≈ 26.6 µM) | MIC ([4]; 24h): 1 µg/mL (≈ 2.66 µM) | MIC ([4]; 48h): 3 µg/mL (≈ 7.99 µM) | MIC ([4]; 72h): 5 µg/mL (≈ 13.3 µM) | MIC (Proteus mirabilis 8029; 24h): 60 µg/mL (≈ 160 µM) | MIC (Proteus mirabilis 8029; 48h): > 100 µg/mL | MIC ([5]; 24h): 1 µg/mL (≈ 2.66 µM) | MIC ([5]; 48h): 2 µg/mL (≈ 5.33 µM) | MIC ([5]; 72h): 2 µg/mL (≈ 5.33 µM) | MIC (Escherichia coli 9957; 24h): 40 µg/mL (≈ 107 µM) | MIC (Escherichia coli 9957; 48h): 100 µg/mL (≈ 266 µM) | MIC (Escherichia coli 9957; 72h): 100 µg/mL (≈ 266 µM) | MIC (Escherichia coli 9927; 24h): 100 µg/mL (≈ 266 µM) | MIC (Escherichia coli 9927; 48h): > 100 µg/mL | MIC (Escherichia coli 1718; 24h): 40 µg/mL (≈ 107 µM) | MIC (Escherichia coli 1718; 48h): 40 µg/mL (≈ 107 µM) | MIC (Escherichia coli 1718; 72h): 60 µg/mL (≈ 160 µM) | MIC ([6]; 24h): 0.4 µg/mL (≈ 1.07 µM) | MIC ([6]; 48h): 1 µg/mL (≈ 2.66 µM) | MIC ([6]; 72h): 1 µg/mL (≈ 2.66 µM) | MIC ([7]; 24h): 1 µg/mL (≈ 2.66 µM) | MIC ([7]; 48h): 2 µg/mL (≈ 5.33 µM) | MIC ([7]; 72h): 2 µg/mL (≈ 5.33 µM) | MIC (Bac. Subt.): 0.2 µg/mL (≈ 0.533 µM) | MIC (Escher. Coli UC 1020): 100 µg/mL (≈ 266 µM) | MIC (Staph. U.C. 1128 P(-)): 2 µg/mL (≈ 5.33 µM) | MIC (Pseudomonas): > 100 µg/mL | MIC [8]: 10 µg/mL (≈ 26.6 µM) | MIC (Escher. Coli UC 1261): 40 to 100 µg/mL (≈ 107 to 266 µM) | MIC [9]: 0.4 µg/mL (≈ 1.07 µM) | MIC (Strept. Fecalis 5432): 20 µg/mL (≈ 53.3 µM) | LD50 (oral toxicity in rats): > 800 mg/kg | abnormal symptoms (oral toxicity in rats; 800 mg/kg): none of the rats presented any abnormal symptoms | germs still alive (Escherichia coli 4965; 30 μg/ml): +++ | germs still alive (Escherichia coli 4965; 40 μg/ml): - | germs still alive ([10]; 2 μg/ml): +++ | germs still alive ([10]; 3 μg/ml): - | germs still alive (Escherichia coli 070; 30 μg/ml): +++ | germs still alive (Escherichia coli 070; 40 μg/ml): - | germs still alive ([11]; 1 μg/ml): +++ | germs still alive ([11]; 2 μg/ml): - | germs still alive ([11]; 3 μg/ml): - | germs still alive ([12]; 1 μg/ml): +++ | germs still alive ([12]; 2 μg/ml): - | germs still alive ([12]; 3 μg/ml): -
